Reference: US20240060999A1, “BLOOD COAGULATION INSPECTION METHOD” (FUJIMORI KOGYO CO., LTD, priority 2020, published 2024)

Test system: whole blood
Assay: ROTEM whole blood coagulation with dialyzed Dade Innovin (recombinant tissue factor) 0.569 μg/mL + Ca 12 mM + CTI 20 μg/mL + PKSI-527 40 μM
Type: cell-based
Conditions: Ex26; for CT (clotting time): Innovin 0.569 μg/mL+Ca+CTI+PKSI-527, heparan sulfate 2 μg/mL
Experimental: ROTEM was used to analyze blood coagulation.
Blood was collected using a blood collection tube containing 3.2% sodium citrate manufactured by Terumo Corporation.
Blood coagulation was analyzed in the case of having added 4% (final concentration 0.569 μg/mL) of Dade Innovin (recombinant tissue factor: Sysmex Corporation) having being diluted by 50 times after dialysis, calcium chloride (Ca; final concentration 12 mM), heparan sulfate (final concentration 0 or 2 μg/mL), CTI (final concentration 20 μg/mL), PKSI-527 (final concentration 40 μM) without and with a soluble thrombomodulin (rTM: final concentration 30 nM) further having been added, as well as with an APC inhibitory aptamer (HS02-44G; final concentration 1 μM) in addition to 30 nM of soluble thrombomodulin.
Blood coagulation was analyzed in the case of having added 4% (final concentration 0.569 μg/mL) of 50-fold diluted Dade Innovin (recombinant tissue factor: Sysmex Corporation) after dialysis, calcium chloride (Ca; final concentration 12 mM), low molecular weight heparan (trade name FRAGMIN; Pfizer) (final concentration 0 or 0.2 U/mL), CTI (final concentration 20 μg/mL), and PKSI-527 (final concentration 40 μM) with and without a soluble thrombomodulin (rTM; final concentration 30 nM) further having been added, as well as with an APC inhibitory aptamer (HS02-44G; final concentration 1 μM) in addition to 30 nM soluble thrombomodulin.
ROTEM was used to analyze coagulation.
Blood coagulation was analyzed in the case of having added 4% (final concentration 0.569 μg/mL) of 50-fold diluted Dade Innovin (recombinant tissue factor: Sysmex Corporation) after dialysis, calcium chloride (Ca; final concentration 12 mM), ARIXTRA (final concentration 0 or […]), CTI (final concentration 20 μg/mL), and PKSI-527 (final concentration 40 μM), without and with thrombomodulin (rTM; final concentration 30 nM) further having been added, as well as with an APC inhibitory aptamer (HS02-44G; final concentration 1 μM) in addition to soluble thrombomodulin 30 nM.

## Heparan sulfate
No rTM
  CT (clotting time): 410 s
rTM 30 nM
  CT (clotting time): 904 s
rTM 30 nM+APC inhibitory aptamer 1 μM
  CT (clotting time): 643 s
Addition of heparan sulfate 2 μg/mL, rTM 30 nM
  anticoagulation ability of the soluble thrombomodulin: markedly enhanced
